These results are taken from ChEMBL document CHEMBL5137093, “Improving Drug Delivery While Tailoring Prodrug Activation to Modulate Cmax and Cmin by Optimization of (Carbonyl)oxyalkyl Linker-Based Prodrugs of Atazanavir” (J Med Chem, 2022).

Series [1] is described as follows: Aqueous stability of the compound in acetate buffer at pH 4 assessed as compound half life measured after 24 hrs by UPLC analysis. Type of series: physicochemical. The note with it: for t1/2: buffer, pH 4, 24 h, 24 h; for half-life: acetate buffer, pH 4.
Series [2] is described as follows: Aqueous stability of the compound in phosphate buffer at pH 6.5 assessed as compound half life measured after 24 hrs by UPLC analysis. Type of series: physicochemical. Conditions: for t1/2: buffer, pH 6.5, 24 h, 24 h; for half-life: phosphate buffer, pH 6.5.
A short description of series [3]: Aqueous solubility of compound at pH 1 by UPLC analysis. It counts as physicochemical.
Series [4] in a line: Aqueous solubility of compound at pH 4 by UPLC analysis. Type of series: physicochemical.
Series [5] is described as follows: Aqueous solubility of compound at pH 6.5 by UPLC analysis. Type of series: physicochemical.
A short description of series [6]: Cmax in Sprague-Dawley rat at 3 ml/kg,po measured upto 24 hrs by UPLC-MS/MS analysis. The arrangement: dose 3 ml/kg, time < 24 hrs, route po. It counts as ADME. Conditions: in vivo.
The nature of series [7]: AUClast in Sprague-Dawley rat at 3 ml/kg,po measured upto 24 hrs by UPLC-MS/MS analysis. Conditions: in vivo; for AUClast: 24 h; for AUC(0-t) at 24 h: Sprague-Dawley, 3 ml/kg. The arrangement: time < 24 hrs, dose 3 ml/kg, route po. It counts as ADME.
Series [8] in a line: Relative Cmax ratio of Atazanavir in Sprague-Dawley rat at 3 ml/kg,po measured upto 24 hrs by UPLC-MS/MS analysis. It counts as ADME. Conditions: in vivo.
The nature of series [9]: Relative AUC ratio of Atazanavir in Sprague-Dawley rat at 3 ml/kg,po measured upto 24 hrs by UPLC-MS/MS analysis. Type of series: ADME. Conditions: in vivo.
Series [10] can be described thus: Fold ratio of total AUC of Atazanavir in Sprague-Dawley rat at 3 ml/kg,po measured upto 24 hrs by UPLC-MS/MS analysis. It counts as ADME. The note with it: in vivo.
Series [11] can be described thus: Ratio of Cmax/Cmin of Atazanavir in Sprague-Dawley rat at 3 ml/kg,po measured after 24 hrs by UPLC-MS/MS analysis. It counts as ADME. Conditions: in vivo.
Series [12] can be described thus: Ratio of AUC of Atazanavir in Sprague-Dawley rat at 3 ml/kg,po measured upto 24 hrs by UPLC-MS/MS analysis. Type of series: ADME. Conditions: in vivo.
Series [13] can be described thus: Aqueous stability of the compound in HCL at pH 1 assessed as compound half life measured after 24 hrs by UPLC analysis. Conditions: for t1/2: buffer, pH 1, 24 h; for half-life: aqueous HCl, pH 1. It counts as physicochemical.
Series [14] is described as follows: Tmax in Sprague-Dawley rat at 3 ml/kg,po measured upto 24 hrs by UPLC-MS/MS analysis. Type of series: ADME. The note with it: in vivo.
Where [15] appears, read: aqueous medium, read-out: solubility.

Structures are written as SMILES. ≈ marks a conversion by molar mass, not a printed value.

Turning to `COC(=O)N[C@H](C(=O)N[C@@H](Cc1ccccc1)[C@H](CN(Cc1ccc(-c2ccccn2)cc1)NC(=O)[C@@H](NC(=O)OC)C(C)(C)C)OC(=O)OC(OC(=O)[C@@H](NC(=O)[C@@H](N)C(C)C)C(C)C)C(C)C)C(C)(C)C` (stereo in doubt; 6f), the t1/2 stood at 376.3 h in series [1] and 94 h in series [2]. In addition, the values for the solubility in series [3] (buffer), in series [4] (buffer) and in series [5] (buffer) were greater than 1000 µg/mL, greater than 1400 µg/mL and 8 µg/mL (≈ 7.85 µM), respectively. The concentration in series [6] (24 h) peaked (Cmax) at 235 nM. In series [7], the AUClast was determined as 0.208 µM·h. Besides, the Ratio came out at 2.7 in series [8]; 3.7 in [9]; 4.2 in series [10]; 1414 in [11]; 0.15 in series [12].
`COC(=O)N[C@H](C(=O)N[C@@H](Cc1ccccc1)[C@H](CN(Cc1ccc(-c2ccccn2)cc1)NC(=O)[C@@H](NC(=O)OC)C(C)(C)C)OC(=O)OC(OC(=O)[C@H](C)N)C(C)C)C(C)(C)C` (stereo in doubt; 3q): the t1/2 in series [13] (24 h) came to 125.4 h; in series [1], 30.4 h; in series [2], 2.7 h. Further, the solubility in series [3] (buffer) is greater than 1700 µg/mL; in series [4] (buffer), greater than 1800 µg/mL. The compound also displayed a Cmax in [6] (24 h) of 1900 nM. Besides, the Tmax in series [14] (po, 24 h) is 0.3 h. Also, in series [7], the AUClast came out at 2.129 µM·h. For the same compound, the Ratio in [8] is recorded as 2.3; in series [9], 1.8; in [10] it was 7.3; in series [11] it was 1505; in series [12], 3.09.
As for `COC(=O)N[C@H](C(=O)N[C@@H](Cc1ccccc1)[C@H](CN(Cc1ccc(-c2ccccn2)cc1)NC(=O)[C@@H](NC(=O)OC)C(C)(C)C)OC(=O)OC(OC(=O)[C@@H](N)C(C)C)C1CCCCC1)C(C)(C)C` (stereo in doubt; 4n), the half-life in series [13] is greater than 500 h; in [1], 334 h. Besides, the t1/2 in series [2] came to 27.4 h. Also, the solubility in [3] (setting [15]) is greater than 1300 µg/mL; in series [4] (setting [15]), greater than 1400 µg/mL; in [5] (setting [15]), less than 1 µg/mL. In [6] (24 h), this compound registered a maximum concentration (Cmax) of 991 nM. Also, the time to peak (Tmax) in series [14] (Sprague-Dawley, read-out: Tmax) is 0.5 h. The compound further returned an AUClast in [7] of 1.454 µM·h. The Ratio in series [8] is listed as 1.3; in series [9], 1.5; in series [10], 5.3; in [12], 2.47.
On to `COC(=O)N[C@H](C(=O)N[C@@H](Cc1ccccc1)[C@H](CN(Cc1ccc(-c2ccccn2)cc1)NC(=O)[C@@H](NC(=O)OC)C(C)(C)C)OC(=O)OC(OC(=O)CCN)C(C)C)C(C)(C)C` (stereo in doubt; 3z), for which the half-life in [13] is greater than 500 h; in series [1], 334 h; in series [2], 10.1 h. In addition, the solubility in series [3] (setting [15]) is greater than 1700 µg/mL; in [4] (setting [15]) it was greater than 1500 µg/mL. The compound further had a Cmax in [6] (Sprague-Dawley, 3 ml/kg) of 6 nM. Besides, the time to peak (Tmax) in series [14] (Sprague-Dawley, read-out: Tmax) was 1.3 h. In [7], this compound yielded an area under the curve AUC(0-t) at 24 h of 0.007 µM·h. The Ratio worked out at 6.9 in series [8]; 8.7 in series [9]; 8.7 in series [10]; 1309.3 in [11]; 0 in series [12].
With `COC(=O)N[C@H](C(=O)N[C@@H](Cc1ccccc1)[C@H](CN(Cc1ccc(-c2ccccn2)cc1)NC(=O)[C@@H](NC(=O)OC)C(C)(C)C)OC(=O)OC(OC(=O)[C@@H](N)Cc1ccccc1)C(C)C)C(C)(C)C` (stereo in doubt; 3w), the t1/2 was 334.3 h in series [13], 158.4 h in series [1] and 12.7 h in series [2]. The solubility in series [3] (buffer) was greater than 1670 µg/mL; in [4] (buffer), greater than 1630 µg/mL; in series [5] (buffer), greater than 890 µg/mL. This compound showed a Cmax in series [6] (Sprague-Dawley, 3 ml/kg) of 50 nM. Also, the Tmax in [14] (Sprague-Dawley, read-out: Tmax) was determined as 0.3 h. In series [7], the AUC(0-t) at 24 h was 0.018 µM·h. Moreover, the Ratio in series [8] was 7.8; in series [9] it was 3.7; in [10], 3.8; in series [12], 0.01.
As for `COC(=O)N[C@H](C(=O)N[C@@H](Cc1ccccc1)[C@H](CN(Cc1ccc(-c2ccccn2)cc1)NC(=O)[C@@H](NC(=O)OC)C(C)(C)C)OC(=O)OC(OC(=O)[C@@H](N)C(C)C)C(C)(C)C)C(C)(C)C` (mixture of isomers), the half-life in [13] and in series [1] was greater than 500 h throughout. Further, the t1/2 in [2] worked out at 65.4 h. In addition, the solubility in series [3] (setting [15]) is greater than 800 µg/mL; in series [4] (setting [15]), greater than 870 µg/mL; in series [5] (setting [15]) it was less than 1 µg/mL. This compound gave a peak concentration (Cmax) in series [6] (24 h) of 670 nM. The Tmax in series [14] (Sprague-Dawley, read-out: Tmax) came out at 0.4 h. In [7], the AUClast worked out at 1.057 µM·h. Also, the Ratio in series [8] turned out to be 5.8; in [9], 10.4; in series [10] it was 13.2; in series [11], 235.5; in [12] it was 0.26.
With `CN[C@H](C(=O)OC(OC(=O)O[C@@H](CN(Cc1ccc(-c2ccccn2)cc1)NC(=O)[C@@H](NC(=O)OC)C(C)(C)C)[C@H](Cc1ccccc1)NC(=O)[C@@H](NC(=O)OC)C(C)(C)C)C(C)C)C(C)C` (stereo in doubt; 5e), the half-life is greater than 500 h in series [13], 376 h in [1] and 4.7 h in [2]. The solubility was greater than 2500 µg/mL in series [3] (setting [15]) and greater than 1400 µg/mL in series [4] (setting [15]). The same compound displayed a Cmax in series [6] (Sprague-Dawley, 3 ml/kg) of 342 nM. Moreover, the Tmax in series [14] (po, 24 h) came out at 0.3 h. Besides, the AUClast in series [7] came to 0.262 µM·h. The Ratio in [8] is reported as 4.7; in series [9], 5.3; in series [10], 6; in series [11], 364.4; in series [12], 0.13.
Regarding `COC(=O)N[C@H](C(=O)N[C@@H](Cc1ccccc1)[C@H](CN(Cc1ccc(-c2ccccn2)cc1)NC(=O)[C@@H](NC(=O)OC)C(C)(C)C)OC(=O)OC(OC(=O)[C@H](N)C(C)C)C(C)C)C(C)(C)C` (stereo in doubt; 5i), the half-life in [13] is greater than 500 h; in series [1], 376 h; in [2], 16.3 h. The values for the solubility in series [3] (setting [15]) and in [4] (setting [15]) were greater than 1300 µg/mL and greater than 1800 µg/mL, respectively. In series [6] (24 h), this compound yielded a Cmax of 19 nM. For the same compound, the time to peak (Tmax) in series [14] (Sprague-Dawley, read-out: Tmax) is 0.4 h. In addition, the AUClast in series [7] was determined as 0.015 µM·h. For the same compound, the Ratio in [8] came out at 5.3; in series [9], 5.6; in series [10] it was 5.6; in series [11], 389.4; in [12] it was 0.01.
For `COC(=O)N[C@H](C(=O)N[C@@H](Cc1ccccc1)[C@H](CN(Cc1ccc(-c2ccccn2)cc1)NC(=O)[C@@H](NC(=O)OC)C(C)(C)C)OC(=O)OC(OC(=O)[C@@H](N)Cc1ccccc1)C(C)C)C(C)(C)C` (stereo in doubt; 3v), the half-life was 334 h in series [13], 100 h in series [1] and 10.7 h in [2]. In addition, the solubility in [3] (setting [15]) is greater than 1520 µg/mL; in [4] (setting [15]), greater than 840 µg/mL; in [5] (buffer), less than 1 µg/mL. For the same compound, the Ratio in series [8] is listed as 0.5; in [9], 0.3; in series [10], 0.3; in [12], 0.
Consider `COC(=O)N[C@H](C(=O)N[C@@H](Cc1ccccc1)[C@H](CN(Cc1ccc(-c2ccccn2)cc1)NC(=O)[C@@H](NC(=O)OC)C(C)(C)C)OC(=O)OC(OC(=O)C1(N)CC1)C(C)C)C(C)(C)C` (stereo in doubt; 3x), for which the half-life in series [13], in [1] and in series [2] was greater than 500 h in each case. In addition, the solubility in series [3] (setting [15]) is greater than 1200 µg/mL; in series [4] (buffer) it was greater than 950 µg/mL; in series [5] (buffer), less than 1.5 µg/mL. Moreover, the Cmax in [6] (Sprague-Dawley, 3 ml/kg) stood at 1260 nM. Moreover, the Tmax in series [14] (Sprague-Dawley, read-out: Tmax) was 0.3 h. The AUClast in series [7] came out at 1.313 µM·h. The Ratio in series [8] was determined as 1.4; in [9] it was 1.7; in series [10], 5.1; in series [12] it was 2.07.
Regarding `COC(=O)N[C@H](C(=O)N[C@@H](Cc1ccccc1)[C@H](CN(Cc1ccc(-c2ccccn2)cc1)NC(=O)[C@@H](NC(=O)OC)C(C)(C)C)OC(=O)OC(OC(=O)C1(N)CC1)C(C)C)C(C)(C)C` (stereo in doubt; 3y), the solubility is greater than 1800 µg/mL in [3] (buffer), greater than 2100 µg/mL in series [4] (buffer) and 28 µg/mL (≈ 31 µM) in series [5] (buffer). Besides, the Cmax in series [6] (24 h) worked out at 835 nM. Further, the Tmax in [14] (po, 24 h) worked out at 0.4 h. Also, the AUClast in series [7] was 4.874 µM·h. The Ratio came out at 2.1 in [8]; 9.5 in [9]; 22.2 in series [10]; 31.8 in [11]; 1.34 in [12].
